From patent publication US20040116420A1 (priority 2001, published 2004)

Tests used:
[1] = target: T1, HSV-1 protease (Human herpesvirus 1, UniProt P10210); test: Enzymatic assay for HSV-1 protease (assembly) inhibitor, fluorescence polarization; assay type: biochemical; details: read-out: HSV-1 Enzyme inhibition IC50
T1 construct: 6xHis (N); made in house; host or cells: baculovirus expression system
Procedure: An enzymatic assay method for an HSV-1 protease (assembly) inhibitor
The activity of an assembly protease was determined by fluorescence polarization. Biotin-gamma-amino butyrate-[…]-DTAF was used as a fluorescent substrate in accordance with an HSV-1 release and cleavage site. […] Changes in the sizes of fluorescent substrate molecules that increased with the use of avidin as a reaction terminator were assayed by fluorescence polarization.
The test compound was dissolved in DMF, and the resultant was diluted 5-fold with an assay buffer. 6.5 μl thereof was added to wells of a 96-well plate (a U-bottomed 96-well plate, Coster) that had previously been blocked with a blocking solution (10 mM Tris-HCl (pH 8.0), 150 mM sodium chloride, 0.05% Tween 20, 1 mg/ml of BSA). The enzyme was diluted to 21.3 μg/ml with an assay buffer (1M sodium citrate, 50 mM sodium phosphate (pH 7.4), 100 mM sodium chloride, 20% glycerol, 2 mM TCEP), and 48.5 μl of the resultant was added to each well. The plate was incubated at room temperature for 30 minutes, and 10 μl of 62.5 μg/ml substrate solution was then added to each well. The plate was incubated at room temperature for 60 minutes, and 50 μl of 2 mg/ml avidin phosphate buffer solution (50 mM sodium phosphate, 100 mM sodium chloride (pH 7.4)) was added to each well. The activity was determined in comparison with a compound without protease inhibitor using a microplate reader for fluorescence polarization.
HSV-1 protease was purified from a vaculovirus that had expressed a DNA construct encoding the reading frame for HSV-1UL26. This construct had further encoded 6 histidine residues at the amino terminus of the protease. These additional histidine residues impart affinity ligands purified by nickel-nitriloacetic acid-agarose (Qiagen). The purified protease was stored as a stock solution for a 20 mM HEPES buffer (pH 8.5, containing 20% v/v glycerin). This stock solution was diluted with an assay buffer and then used in the enzyme reaction.
In accordance with the cleavage specificity of the HSV-1 protease at the “release site” of the assembled protein, a specific substrate was synthesized (Diianni et al., J. Biol. Chem. 268, 2048 (1993)). This assembly protein-release site had the sequence • HTYLQA*SEKFKMW • , and the substrate used was biotin-gamma-amino butyrate-HTYLQA*SERFRIK-DTAF. This is a standard method for peptide synthesis, for example, as in the a method described in “The Practice of Peptide Synthesis” (Bodansky and Bodansky (1984)). The product was stored as a 2.5 mg/ml stock solution in DMF. The resultant was diluted to 62.5 μg/ml with a phosphate buffer (50 mM sodium phosphate, 100 mM sodium chloride, (pH 7.4)) immediately before its use.
An assay buffer (1M sodium citrate, 50 mM sodium phosphate (pH 7.4), 100 mM sodium chloride, 20% glycerol, 2 mM TCEP) was used to dilute a stock solution for the enzyme and that for the inhibitor.

[2] = system: HSV-1; test: Antiviral activity, HSV-1 in Vero cells, plaque method; assay type: cell-based; details: Human alphaherpesvirus 1, 20 hours, 90% inhibition of plaque formation
Procedure: An Assay Method for Antiviral Activity These complementary assay methods examine the capacity of a compound to inhibit the generation of new viruses and to inhibit the toxicity of the compound against the host cell. Toxicity indirectly decreases the generation of viruses. Thus, it is important to simultaneously conduct both assays in order to directly compare the results. The Vero cells were sown on a 96-well plate and then cultured overnight. The culture supernatant was removed, and 100 μl of 2% FBS-DMEM containing 50,000 plaque-forming units (hereinafter abbreviated as “pfu”) of HSV-1 was added. A viral solution was removed and 200 μl of 2% FBS-DMEM comprising a test compound was added. In this case, a substance to which 2% FBS-DMEM not comprising any test compound had been added was determined as a control. These infected cells were incubated in the presence of 5% CO2 at 37° C. for 20 hours, and the medium was once allowed to freeze at −80° C. The culture solution was dissolved, and the amount of viruses in the culture solution was assayed by the plaque method. The concentration of the test compound when it inhibited 90% of plaque formation relative to the control was determined to be EC 90.

T1 sequence (P10210 1-247): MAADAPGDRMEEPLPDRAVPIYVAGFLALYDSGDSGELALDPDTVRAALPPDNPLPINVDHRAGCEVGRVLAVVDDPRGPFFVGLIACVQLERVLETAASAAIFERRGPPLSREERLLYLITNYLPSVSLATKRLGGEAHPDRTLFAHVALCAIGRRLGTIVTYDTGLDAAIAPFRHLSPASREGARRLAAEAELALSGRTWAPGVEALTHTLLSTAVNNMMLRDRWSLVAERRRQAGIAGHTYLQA

| IC50 [1] | EC90 [2] | Structure (SMILES) |
| --- | --- | --- |
| 0.4 µM | > 20 µM | Cc1c(NC(=O)OC(C)(C)C)ccc2nc(NCC(=O)N(C)CCc3ccccn3)oc(=O)c12 [Compound No.130, [5-methyl-2-({[methyl-(2-pyridin-2-yl-ethyl)-carbamoyl]-methyl}-amino)-4-oxo-4H-benzo[d][1,3]oxazin-6-yl]-carbamic Acid Tert-Butyl Ester] |
| 0.5 µM | > 12.5 µM | Cc1c(NC(=O)CCNC(=O)OCc2ccccc2)ccc2nc(NC(C)(C)C(=O)N(C)CCc3ccccn3)oc(=O)c12 [Compound No.202, [2-(5-Methyl-2-{1-methyl-1-[methyl-(2-pyridin-2-yl-ethyl)-carbamoyl]-ethylamino}-4-oxo-4H-benzo [d][1,3]oxazin-6-ylcarbamoyl)-ethyl]-carbamic acid benzyl ester] |
| 0.9 µM | > 20 µM | Cc1c(NC(=O)OC(C)(C)C)ccc2nc(NCCC(=O)N(C)CCc3ccccn3)oc(=O)c12 [Compound No.133, (5-Methyl-2-{2-[methyl-(2-pyridin-2-yl-ethyl)-carbamoyl]-ethylamino}-4-oxo-4H-benzo[d][1,3]oxazin-6-yl)-carbamic acid tert-butyl ester] |
| 0.5 µM | > 12.5 µM | Cc1c(NC(=O)CCCNC(=O)c2ccncc2)ccc2nc(NC(C)(C)C(=O)N(C)CCc3ccccn3)oc(=O)c12 |
| 0.5 µM | > 12.5 µM | CCCCc1ccc(C(=O)NCCCC(=O)Nc2ccc3nc(N[C@@H](C)C(=O)N(C)CCc4ccccn4)oc(=O)c3c2C)cc1 [Compound No.220, 4-Butyl-N-[3-(5-methyl-2-{1S-[methyl-(2-pyridin-2-yl-ethyl)-carbamoyl]-ethylamino}-4-oxo-4H-benzo [d][1,3]oxazin-6-ylcarbamoyl)-propyl]-benzamide] |
| 0.2 µM | > 12.5 µM | Cc1c(NC(=O)CCCNC(=O)OCc2ccccc2)ccc2nc(N[C@@H](C)C(=O)N(C)CCc3ccccn3)oc(=O)c12 [Compound No.208, [3-(5-Methyl-2-{1S-[methyl-(2-pyridin-2-yl-ethyl)-carbamoyl]-ethylamino}-4-oxo-4H-benzo[d][1,3]oxazin-6-ylcarbamoyl)-propyl]-carbamic acid benzyl ester] |
| 0.4 µM | > 20 µM | Cc1c(NC(=O)OC(C)(C)C)ccc2nc(N(C)CC(=O)N(C)CCc3ccccn3)oc(=O)c12 [Compound No.131, [5-Methyl-2-(methyl-{[methyl-(2-pyridin-2-yl-ethyl)-carbamoyl]-methyl}-amino)-4-oxo-4H-benzo[d][1,3]oxazin-6-yl]-carbamic acid tert-butyl ester] |
| 0.4 µM | > 12.5 µM | Cc1c(NC(=O)CCCNC(=O)OC(C)(C)C)ccc2nc(NC(C)(C)C(=O)N(C)CCc3ccccn3)oc(=O)c12 [Compound No.203, [3-(5-Methyl-2-{1-methyl-1-[methyl-(2-pyridin-2-yl-ethyl)-carbamoyl]-ethylamino}-4-oxo-4H-benzo[d][1,3]oxazin-6-ylcarbamoyl)-propyl]-carbamic acid tert-butyl ester] |
| 0.7 µM | > 12.5 µM | Cc1c(NC(=O)OC(C)(C)C)ccc2nc(NC3(C(=O)N(C)Cc4cccnc4)CCCC3)oc(=O)c12 [Compound No.119, {5-Methyl-2-[1-(methyl-pyridin-3-ylmethyl-carbamoyl)-cyclopentylamino]-4-oxo-4H-benzo[d][1,3]oxazin-6-yl}-carbamic acid tert-butyl ester] |
| 4.7 µM | > 12.5 µM | CCCCc1ccc(C(=O)NCCC(=O)Nc2ccc3nc(N[C@@H](C)C(=O)N(C)CCc4ccccn4)oc(=O)c3c2C)cc1 [Compound No.217, 4-Butyl-N-[2-(5-methyl-2-{1S-[methyl-(2-pyridin-2-yl-ethyl)-carbamoyl]-ethylamino}-4-oxo-4H-benzo[d][1,3]oxazin-6-ylcarbamoyl)-ethyl]-benzamide] |
| 0.7 µM | > 12.5 µM | Cc1c(NC(=O)CCNC(=O)c2ccc(C(F)(F)F)cc2)ccc2nc(NC(C)(C)C(=O)N(C)CCc3ccccn3)oc(=O)c12 [Compound No.210, N-[2-(5-Methyl-2-{1-methyl-1-[methyl-(2-pyridin-2-yl-ethyl)-carbamoyl]-ethylamino}-4-oxo-4H-benzo[d][1,3]oxazin-6-ylcarbamoyl)-ethyl]-4-trifluoromethyl-benzamide] |
| 2.5 µM | > 20 µM | Cc1c(NC(=O)CCNC(=O)OC(C)(C)C)ccc2nc(N[C@@H](C)C(=O)N(C)CCc3ccccn3)oc(=O)c12 [Compound No.205, [2-(5-Methyl-2-{1S-[methyl-(2-pyridin-2-yl-ethyl)-carbamoyl]-ethylamino}-4-oxo-4H-benzo[d][1,3]oxazin-6-ylcarbamoyl)-ethyl]-carbamic acid tert-butyl ester] |
| 1.3 µM | > 12.5 µM | Cc1c(NC(=O)c2cccs2)ccc2nc(N[C@@H](C)C(=O)N(C)CCc3ccccn3)oc(=O)c12 [Compound No.135, Thiophene-2-carboxylic acid (5-methyl-2-{1S-[methyl-(2-pyridin-2-yl-ethyl)-carbamoyl]-ethylamino}-4-oxo-4H-benzo[d][1,3]oxazin-6-yl)-amide] |
| 1.6 µM | > 12.5 µM | Cc1c(NC(=O)OC(C)(C)C)ccc2nc(NC3(C(=O)N(C)CCc4ccccn4)CC3)oc(=O)c12 [Compound No.122, (5-Methyl-2-{1-[methyl-(2-pyridin-2-yl-ethyl)-carbamoyl]-cyclopropylamino}-4-oxo-4H-benzo[d][1,3]oxazin-6-yl)-carbamic acid tert-butyl ester] |
| 0.4 µM | 10.1 µM | Cc1c(NC(=O)OC(C)(C)C)ccc2nc(NC3(C(=O)N(C)CCc4ccncc4)CCCC3)oc(=O)c12 [Compound No.128, (5-Methyl-2-{1-[methyl-(2-pyridin-4-yl-ethyl)-carbamoyl]-cyclopentylamino}-4-oxo-4H-benzo[d][1,3]oxazin-6-yl)-carbamic acid tert-butyl ester] |
| 0.7 µM | > 12.5 µM | Cc1c(NC(=O)OC(C)(C)C)ccc2nc(NC(C)(C)C(=O)N(C)Cc3cccnc3)oc(=O)c12 [Compound No.117, {5-Methyl-2-[1-methyl-1-(methyl-pyridin-3-ylmethyl-carbamoyl)-ethylamino]-4-oxo-4H-benzo[d][1,3]oxazin-6-yl}-carbamic acid tert-butyl ester] |
| 3.2 µM | > 12.5 µM | Cc1c(NC(=O)CCNC(=O)c2cccs2)ccc2nc(N[C@@H](C)C(=O)N(C)CCc3ccccn3)oc(=O)c12 [Compound No.215, Thiophene-2-carboxylic acid [2-(5-methyl-2-{1S-[methyl-(2-pyridin-2-yl-ethyl)-carbamoyl]-ethylamino}-4-oxo-4H-benzo[d][1,3]oxazin-6-ylcarbamoyl)-ethyl]-amide] |
| 2.3 µM | > 12.5 µM | Cc1c(NC(=O)OC(C)(C)C)ccc2nc(NC3(C(=O)N(C)Cc4cccnc4)CC3)oc(=O)c12 [Compound No.118, {5-Methyl-2-[1-(methyl-pyridin-3-ylmethyl-carbamoyl)-cyclopropylamino]-4-oxo-4H-benzo[d][1,3]oxazin-6-yl}-carbamic acid tert-butyl ester] |
